What was measured:
B2 bradykinin receptor = target: T1, B2 bradykinin receptor (Homo sapiens, UniProt P30411); test: Binding affinity to bradykinin B2 receptor
T1 sequence (P30411 whole entry): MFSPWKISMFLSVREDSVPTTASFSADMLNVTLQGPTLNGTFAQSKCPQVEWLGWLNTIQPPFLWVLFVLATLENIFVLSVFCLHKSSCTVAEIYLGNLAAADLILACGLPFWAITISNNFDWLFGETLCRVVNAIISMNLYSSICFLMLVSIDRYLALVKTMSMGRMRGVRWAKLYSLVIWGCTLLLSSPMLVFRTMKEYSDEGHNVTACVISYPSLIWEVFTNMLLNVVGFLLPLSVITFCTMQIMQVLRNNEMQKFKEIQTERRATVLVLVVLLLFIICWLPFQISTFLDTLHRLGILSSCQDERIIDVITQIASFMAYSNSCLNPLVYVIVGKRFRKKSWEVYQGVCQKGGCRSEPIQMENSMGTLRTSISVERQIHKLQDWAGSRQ

[1] = Half life in iv dosed rat; assay type: ADME, organism-based; details: in vivo
B1 bradykinin receptor = target: T2, B1 bradykinin receptor (Homo sapiens, UniProt P46663); test: Binding affinity to human bradykinin B1 receptor expressed in CHO cells; assay type: cell-based
T2 sequence (P46663 whole entry): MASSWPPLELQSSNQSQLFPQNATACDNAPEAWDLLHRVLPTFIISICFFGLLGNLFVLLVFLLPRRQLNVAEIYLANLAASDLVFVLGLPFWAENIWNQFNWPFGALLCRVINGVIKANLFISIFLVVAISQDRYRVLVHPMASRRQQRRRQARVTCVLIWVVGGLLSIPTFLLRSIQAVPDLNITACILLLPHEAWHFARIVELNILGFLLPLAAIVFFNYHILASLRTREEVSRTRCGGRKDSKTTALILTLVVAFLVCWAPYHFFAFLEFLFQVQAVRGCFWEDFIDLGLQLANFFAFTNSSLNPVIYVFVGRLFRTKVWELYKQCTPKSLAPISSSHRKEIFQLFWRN

[2] = Oral bioavailability in rat; assay type: ADME, organism-based; details: in vivo
[3] = Clearance in iv dosed rat; assay type: ADME, organism-based; details: in vivo

Compound | Ki (B2 bradykinin receptor) [µM] | half-life [1] [h] | Ki (B1 bradykinin receptor) [µM] | bioavailability [2] [%] | clearance [3] [mL/min/kg]
COC(=O)c1ccccc1-c1ccc(CNc2ncccc2NC(=O)CC(F)(F)F)cc1 | > 10 | 0.15 |  |  | 
COC(=O)c1ccccc1-c1ccc(CNC(=O)C2(NC(=O)c3cncc(C(F)(F)F)c3)CC2)cc1 | > 10 |  | 0.0018 |  | 
COC(=O)c1ccccc1-c1ccc(CNC(=O)C2(NC(=O)CC(F)(F)F)CCCCC2)cc1 | > 10 | 12 | 0.752 | 25 | 2.6
COC(=O)c1ccccc1-c1ccc(CNC(=O)C2(NC(=O)CC(F)(F)F)CCCC2)cc1 | > 10 |  | 0.462 |  | 
COC(=O)c1ccccc1-c1ccc(CNC(=O)C2(NC(=O)c3cncnc3)CC2)cc1 | > 10 |  | 0.0255 |  | 
COC(=O)c1ccccc1-c1ccc(CNC(=O)C2(NC(=O)CC(F)(F)F)CCC2)cc1 | > 10 |  | 0.119 |  | 

The next lines start with the values.

Ki (B2 bradykinin receptor) [µM] | half-life [1] [h] | Ki (B1 bradykinin receptor) [µM] | bioavailability [2] [%] | clearance [3] [mL/min/kg] | Compound
> 10 |  | 1.58 |  |  | COC(=O)c1ccccc1-c1ccc(CNC(=O)[C@@H](C)NC(=O)CC(F)(F)F)cc1
> 10 | 6.6 |  | 35 | 4.2 | COC(=O)c1ccccc1-c1ccc(CNC(=O)C(C)(C)NC(=O)CC(F)(F)F)cc1
> 10 | 9.5 |  | 26 | 9.3 | COC(=O)c1ccccc1-c1ccc(CNC(=O)C2(NC(=O)CC(F)(F)F)CC2)cc1
> 10 |  | 52 |  |  | COC(=O)c1ccccc1-c1ccc(CNC(=O)CNC(=O)CC(F)(F)F)cc1
> 10 |  | > 50 |  |  | COC(=O)c1ccccc1-c1ccc(CNC(=O)[C@H](C)NC(=O)CC(F)(F)F)cc1
